Active and inactive are the calls of the source.

The values below come from ChEMBL document CHEMBL4819053, “Alkyne-Bridged α-Conotoxin Vc1.1 Potently Reverses Mechanical Allodynia in Neuropathic Pain Models” (J Med Chem, 2021).

The subject of this assay is Rattus norvegicus. Put plainly: Antiallodynic activity in Sprague-Dawley rat model of neuropathic mechanical allodynia assessed as increase in paw withdrawal threshold at 100 mg/kg, po measured at 2 to 6 hrs post last dose by von Frey test. The class given is functional, organism-based. The following applies: time 2-6 hrs.

As for `NCC1(CC(=O)O)CCCCC1`, the outcome was Active.
